According to the CheMixHub viscosity set:

Experiment: xn = mol fraction of the nth substance listed

CC12CC3CC(C)(C1)CC(C)(C3)C2 + CCCCCCCCO
viscosity [mPa·s], 100 kPa
Conditions	x1 = 0.1004	x1 = 0.2017	x1 = 0.3008	x1 = 0.3998	x1 = 0.5015	x1 = 0.5993	x1 = 0.7	x1 = 0.7997	x1 = 0.9005
293.15 K	7.78	6.71	5.79	5	4.3	3.75	3.3	2.98	2.76
298.15 K	6.54	5.65	4.9	4.25	3.71	3.28	2.93	2.66	2.47
303.15 K	5.53	4.81	4.2	3.68	3.24	2.88	2.59	2.37	2.21
308.15 K	4.72	4.14	3.64	3.22	2.85	2.55	2.31	2.13	2
313.15 K	4.03	3.57	3.18	2.83	2.53	2.28	2.08	1.93	1.82
318.15 K	3.49	3.12	2.79	2.5	2.24	2.03	1.86	1.73	1.65
323.15 K	3.03	2.72	2.45	2.22	2	1.83	1.69	1.58	1.51

ClC(Cl)=C(Cl)Cl + CCCCCCCO
303.15 K, 101 kPa
Conditions	viscosity [mPa·s]
x2 = 0.132	1.08
x2 = 0.2375	1.267
x2 = 0.3539	1.511
x2 = 0.4634	1.807
x2 = 0.5262	2.016
x2 = 0.5927	2.259
x2 = 0.6534	2.548
x2 = 0.7637	3.149
x2 = 0.8512	3.725
x2 = 0.9246	4.255

O=[N+]([O-])c1ccccc1 + CO
viscosity [mPa·s]
Conditions	298.15 K	303.15 K
101 kPa, x1 = 0.0148	0.5642	–
101 kPa, x2 = 0.0719	1.698	–
101 kPa, x2 = 0.2616	1.416	–
101 kPa, x2 = 0.4788	1.161	–
101 kPa, x2 = 0.5889	1.036	–
101 kPa, x2 = 0.7539	0.8366	–
101 kPa, x2 = 0.8593	0.7113	–
101 kPa, x2 = 0.9296	0.6279	–
101.33 kPa, x1 = 0.0281	0.5789	0.541
101.33 kPa, x1 = 0.0612	0.611	0.5673
101.33 kPa, x1 = 0.1003	0.6507	0.607
101.33 kPa, x1 = 0.1478	0.7156	0.6653
101.33 kPa, x1 = 0.2806	0.8769	0.81
101.33 kPa, x1 = 0.3909	1.006	0.9279
101.33 kPa, x1 = 0.5102	1.156	1.093
101.33 kPa, x1 = 0.5937	–	1.298
101.33 kPa, x1 = 0.8005	1.559	1.485
101.33 kPa, x1 = 0.8978	1.693	1.534

O=[N+]([O-])c1ccccc1 + CCCCCO
293.15 K, 101.33 kPa
Conditions	viscosity [mPa·s]
x2 = 0.0258	1.964
x2 = 0.0556	1.924
x2 = 0.104	1.867
x2 = 0.18	1.856
x2 = 0.204	1.86
x2 = 0.2635	1.899
x2 = 0.2976	1.918
x2 = 0.3319	1.938
x2 = 0.3827	2.003
x2 = 0.4677	2.104
x2 = 0.6694	2.475
x2 = 0.8217	2.982

ClC(Cl)=C(Cl)Cl + CCOCCO
viscosity [mPa·s], 101.33 kPa
Conditions	x1 = 0.1174	x1 = 0.2104	x1 = 0.323	x1 = 0.4392	x1 = 0.5276	x1 = 0.6168	x1 = 0.7085	x1 = 0.8053	x1 = 0.9054
303.15 K	1.513	1.396	1.272	1.149	1.065	0.992	0.926	0.869	0.822
313.15 K	1.201	1.132	1.049	0.968	0.91	0.857	0.809	0.769	0.739

CCCCCO + CCCCCC
viscosity [mPa·s], 101 kPa
Conditions	298.15 K	313.15 K
x1 = 0.0122	0.302	–
x1 = 0.0218	0.305	–
x1 = 0.0272	0.307	–
x1 = 0.0424	0.312	–
x1 = 0.0642	0.321	–
x1 = 0.0706	0.324	–
x1 = 0.0889	0.333	–
x1 = 0.0978	0.337	–
x1 = 0.124	0.35	–
x1 = 0.1377	0.357	–
x1 = 0.1474	0.362	–
x1 = 0.1677	0.371	0.318
x1 = 0.1838	0.382	–
x1 = 0.1966	0.39	–
x1 = 0.2033	0.395	–
x1 = 0.2353	0.423	0.356
x1 = 0.3342	0.518	0.427
x1 = 0.4494	0.677	0.545
x1 = 0.5434	0.874	0.668
x1 = 0.6407	1.19	0.893
x1 = 0.7344	1.555	1.134
x1 = 0.8437	2.164	1.5
x1 = 0.9129	2.715	1.843

CC12CC3CC(C)(C1)CC(C)(C3)C2 + OCC1CCCCC1
Conditions	viscosity [mPa·s]
303.15 K, 100 kPa, x2 = 0.801	10.65

ClC(Cl)=C(Cl)Cl + CCCCCC
303.15 K, 101 kPa
Conditions	viscosity [mPa·s]
x1 = 0.1642	0.358
x1 = 0.2468	0.388
x1 = 0.3358	0.432
x1 = 0.4336	0.471
x1 = 0.4782	0.494
x1 = 0.514	0.515
x1 = 0.6464	0.591
x1 = 0.7236	0.643
x1 = 0.8072	0.697
x1 = 0.9346	0.776
